PMC5761851, “Application of a phenotypic drug discovery strategy to identify biological and chemical starting points for inhibition of TSLP production in lung epithelial cells” (PLoS ONE, 2018)
Several values for one entry are separate records, joined by “and”; a condition that tells them apart may be missing. Identical values can stand only once. Like-named read-outs stand apart in the source and are kept apart here.

Columns and labels:
[1] = target: T1, EphB4 (Homo sapiens, UniProt P54760); experiment: kinase selectivity panel; assay type: biochemical; settings: read-out: percentage of control activity (POC), EphB4
T1 construct: purchased Eurofins Pharma Discovery Services (KinaseProfiler; Cerep BioPrint panel)
T1 sequence (P54760 16-987): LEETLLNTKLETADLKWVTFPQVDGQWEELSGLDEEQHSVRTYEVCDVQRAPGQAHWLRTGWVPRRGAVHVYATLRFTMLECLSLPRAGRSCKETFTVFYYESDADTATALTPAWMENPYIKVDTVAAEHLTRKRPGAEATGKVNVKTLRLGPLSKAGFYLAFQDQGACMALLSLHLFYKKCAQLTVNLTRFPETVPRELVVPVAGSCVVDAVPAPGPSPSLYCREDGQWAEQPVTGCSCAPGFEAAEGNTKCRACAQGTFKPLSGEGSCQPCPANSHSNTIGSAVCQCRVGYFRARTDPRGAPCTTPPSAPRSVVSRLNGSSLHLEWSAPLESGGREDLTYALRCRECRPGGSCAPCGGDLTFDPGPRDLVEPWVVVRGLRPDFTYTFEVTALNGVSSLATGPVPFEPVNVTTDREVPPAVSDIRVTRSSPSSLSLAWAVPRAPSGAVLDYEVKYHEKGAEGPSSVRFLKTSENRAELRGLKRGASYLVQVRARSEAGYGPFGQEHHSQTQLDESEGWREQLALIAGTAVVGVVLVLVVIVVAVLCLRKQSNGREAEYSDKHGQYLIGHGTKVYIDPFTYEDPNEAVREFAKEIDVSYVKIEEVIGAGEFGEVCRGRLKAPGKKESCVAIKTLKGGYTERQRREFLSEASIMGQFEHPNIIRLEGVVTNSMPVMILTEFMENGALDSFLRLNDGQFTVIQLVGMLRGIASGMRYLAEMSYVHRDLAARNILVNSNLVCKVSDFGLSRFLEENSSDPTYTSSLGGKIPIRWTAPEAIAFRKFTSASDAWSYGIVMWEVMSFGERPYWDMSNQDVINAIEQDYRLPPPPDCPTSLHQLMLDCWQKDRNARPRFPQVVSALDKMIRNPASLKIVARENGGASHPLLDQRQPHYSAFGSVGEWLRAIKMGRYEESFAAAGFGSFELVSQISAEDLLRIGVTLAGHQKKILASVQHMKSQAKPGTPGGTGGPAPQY
Description: (§1) Kinase selectivity was evaluated at Eurofins Pharma Discovery Services using a selection of 125 representative kinases tested at a concentration of 10 μM in duplicate (S3 Table). IC50 values for selected activities were further characterized at 9 duplicate concentrations. DNA-PK activity was determined at the SelectScreen® Biochemical kinase Profiling Service of Thermo Fisher Scientific.

[2] = target: T2, cKit (Homo sapiens, UniProt P10721); experiment: kinase selectivity panel; assay type: biochemical; settings: read-out: percentage of control activity (POC), cKit
T2 construct: purchased Eurofins Pharma Discovery Services (KinaseProfiler; Cerep BioPrint panel)
T2 sequence (P10721 26-976): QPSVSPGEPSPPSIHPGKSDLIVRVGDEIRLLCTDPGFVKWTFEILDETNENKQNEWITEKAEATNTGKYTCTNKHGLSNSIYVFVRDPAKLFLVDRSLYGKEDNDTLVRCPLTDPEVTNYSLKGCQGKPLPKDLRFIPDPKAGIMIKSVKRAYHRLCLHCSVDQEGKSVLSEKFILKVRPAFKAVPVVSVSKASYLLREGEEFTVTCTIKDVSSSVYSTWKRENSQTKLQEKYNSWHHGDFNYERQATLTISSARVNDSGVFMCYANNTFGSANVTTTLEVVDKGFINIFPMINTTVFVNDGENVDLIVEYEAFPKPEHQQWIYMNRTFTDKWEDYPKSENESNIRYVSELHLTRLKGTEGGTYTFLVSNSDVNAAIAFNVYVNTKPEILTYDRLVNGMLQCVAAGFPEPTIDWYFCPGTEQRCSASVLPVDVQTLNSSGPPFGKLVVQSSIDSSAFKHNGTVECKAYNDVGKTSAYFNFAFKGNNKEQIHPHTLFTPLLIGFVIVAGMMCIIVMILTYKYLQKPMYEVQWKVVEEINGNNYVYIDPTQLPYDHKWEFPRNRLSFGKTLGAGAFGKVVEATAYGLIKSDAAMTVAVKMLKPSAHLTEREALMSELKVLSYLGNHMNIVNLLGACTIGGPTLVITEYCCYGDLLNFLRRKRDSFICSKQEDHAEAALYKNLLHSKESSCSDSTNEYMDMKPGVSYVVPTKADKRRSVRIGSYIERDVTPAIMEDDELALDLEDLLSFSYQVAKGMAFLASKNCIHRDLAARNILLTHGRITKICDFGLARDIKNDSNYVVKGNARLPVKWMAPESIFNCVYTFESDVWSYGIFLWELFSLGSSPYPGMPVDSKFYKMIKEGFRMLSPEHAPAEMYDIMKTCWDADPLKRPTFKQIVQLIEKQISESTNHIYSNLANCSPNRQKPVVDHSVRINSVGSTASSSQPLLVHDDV
Description: as §1

[3] = target: T3, LOK (Homo sapiens, UniProt O94804); experiment: kinase selectivity panel; assay type: biochemical; settings: read-out: percentage of control activity (POC), LOK
T3 construct: purchased Eurofins Pharma Discovery Services (KinaseProfiler; Cerep BioPrint panel)
T3 sequence (O94804 whole entry): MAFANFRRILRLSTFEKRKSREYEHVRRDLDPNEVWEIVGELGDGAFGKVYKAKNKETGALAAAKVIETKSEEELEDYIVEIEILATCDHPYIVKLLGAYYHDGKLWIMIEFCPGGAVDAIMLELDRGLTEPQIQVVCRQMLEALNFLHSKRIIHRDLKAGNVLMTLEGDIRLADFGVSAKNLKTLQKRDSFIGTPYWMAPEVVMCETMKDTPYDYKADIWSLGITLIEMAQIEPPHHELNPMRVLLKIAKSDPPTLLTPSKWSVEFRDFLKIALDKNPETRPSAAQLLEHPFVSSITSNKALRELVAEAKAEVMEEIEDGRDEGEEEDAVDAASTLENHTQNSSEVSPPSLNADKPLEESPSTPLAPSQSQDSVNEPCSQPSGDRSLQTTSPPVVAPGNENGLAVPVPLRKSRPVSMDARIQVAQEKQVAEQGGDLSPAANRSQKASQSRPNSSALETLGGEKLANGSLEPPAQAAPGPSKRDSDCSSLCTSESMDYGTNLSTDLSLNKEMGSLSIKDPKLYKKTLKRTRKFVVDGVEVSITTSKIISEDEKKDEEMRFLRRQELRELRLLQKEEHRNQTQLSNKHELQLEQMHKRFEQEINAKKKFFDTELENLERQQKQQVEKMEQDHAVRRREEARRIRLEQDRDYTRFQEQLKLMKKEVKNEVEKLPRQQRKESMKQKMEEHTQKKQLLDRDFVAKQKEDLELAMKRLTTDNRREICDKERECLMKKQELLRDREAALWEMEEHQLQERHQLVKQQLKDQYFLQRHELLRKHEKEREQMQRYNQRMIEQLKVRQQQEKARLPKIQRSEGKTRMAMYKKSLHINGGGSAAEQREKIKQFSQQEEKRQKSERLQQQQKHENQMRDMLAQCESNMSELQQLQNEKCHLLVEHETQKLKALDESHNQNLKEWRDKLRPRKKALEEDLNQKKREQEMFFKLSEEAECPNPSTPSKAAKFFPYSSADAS
Description: as §1

[4] = target: T4, BTK (Homo sapiens, UniProt Q06187); experiment: kinase selectivity panel; assay type: biochemical; settings: read-out: percentage of control activity (POC), BTK
T4 construct: purchased Eurofins Pharma Discovery Services (KinaseProfiler; Cerep BioPrint panel)
T4 sequence (Q06187 whole entry): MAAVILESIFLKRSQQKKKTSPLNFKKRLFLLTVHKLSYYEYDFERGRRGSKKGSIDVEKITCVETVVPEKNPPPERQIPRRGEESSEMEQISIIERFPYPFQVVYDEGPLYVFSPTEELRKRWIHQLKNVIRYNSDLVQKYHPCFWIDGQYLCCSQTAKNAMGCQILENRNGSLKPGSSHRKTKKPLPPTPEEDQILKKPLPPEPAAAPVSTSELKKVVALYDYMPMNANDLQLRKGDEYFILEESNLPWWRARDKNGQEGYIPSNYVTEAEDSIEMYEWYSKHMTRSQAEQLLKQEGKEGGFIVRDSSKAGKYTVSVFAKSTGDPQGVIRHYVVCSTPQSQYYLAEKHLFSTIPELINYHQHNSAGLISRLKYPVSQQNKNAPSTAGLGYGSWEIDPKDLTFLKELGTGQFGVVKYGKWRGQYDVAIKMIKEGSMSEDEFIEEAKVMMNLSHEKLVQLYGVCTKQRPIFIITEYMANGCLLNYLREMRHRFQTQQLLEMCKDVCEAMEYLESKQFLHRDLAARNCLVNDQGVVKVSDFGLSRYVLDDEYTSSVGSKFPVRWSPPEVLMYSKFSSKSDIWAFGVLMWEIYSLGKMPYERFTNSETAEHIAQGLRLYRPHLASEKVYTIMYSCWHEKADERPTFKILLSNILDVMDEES
Description: as §1

[5] = target: T5, Fyn (Homo sapiens, UniProt P06241); experiment: kinase selectivity panel; assay type: biochemical; settings: read-out: percentage of control activity (POC), Fyn
T5 construct: purchased Eurofins Pharma Discovery Services (KinaseProfiler; Cerep BioPrint panel)
T5 sequence (P06241 whole entry): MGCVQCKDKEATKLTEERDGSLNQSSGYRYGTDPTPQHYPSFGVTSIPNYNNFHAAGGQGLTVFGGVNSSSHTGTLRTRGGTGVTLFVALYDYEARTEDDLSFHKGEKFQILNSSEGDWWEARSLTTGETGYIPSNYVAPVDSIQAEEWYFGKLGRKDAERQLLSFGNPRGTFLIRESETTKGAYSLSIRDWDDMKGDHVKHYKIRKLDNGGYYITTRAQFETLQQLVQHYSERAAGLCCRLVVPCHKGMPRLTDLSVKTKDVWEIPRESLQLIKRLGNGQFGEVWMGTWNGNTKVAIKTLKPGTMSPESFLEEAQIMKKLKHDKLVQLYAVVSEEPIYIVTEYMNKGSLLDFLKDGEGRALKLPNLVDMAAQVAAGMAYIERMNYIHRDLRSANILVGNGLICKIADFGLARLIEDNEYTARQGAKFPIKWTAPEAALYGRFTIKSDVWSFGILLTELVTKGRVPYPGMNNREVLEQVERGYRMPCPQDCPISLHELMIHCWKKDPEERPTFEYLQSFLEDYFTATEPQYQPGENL
Description: as §1

[6] = target: T6, PI3K (p120g) (Homo sapiens, UniProt P48736); experiment: kinase selectivity panel; assay type: biochemical; settings: for remaining activity at 10 µM: read-out: percentage of control activity (POC), PI3K (p120g)
T6 construct: Eurofins Pharma Discovery Services (contract assay service)
T6 sequence (P48736 whole entry): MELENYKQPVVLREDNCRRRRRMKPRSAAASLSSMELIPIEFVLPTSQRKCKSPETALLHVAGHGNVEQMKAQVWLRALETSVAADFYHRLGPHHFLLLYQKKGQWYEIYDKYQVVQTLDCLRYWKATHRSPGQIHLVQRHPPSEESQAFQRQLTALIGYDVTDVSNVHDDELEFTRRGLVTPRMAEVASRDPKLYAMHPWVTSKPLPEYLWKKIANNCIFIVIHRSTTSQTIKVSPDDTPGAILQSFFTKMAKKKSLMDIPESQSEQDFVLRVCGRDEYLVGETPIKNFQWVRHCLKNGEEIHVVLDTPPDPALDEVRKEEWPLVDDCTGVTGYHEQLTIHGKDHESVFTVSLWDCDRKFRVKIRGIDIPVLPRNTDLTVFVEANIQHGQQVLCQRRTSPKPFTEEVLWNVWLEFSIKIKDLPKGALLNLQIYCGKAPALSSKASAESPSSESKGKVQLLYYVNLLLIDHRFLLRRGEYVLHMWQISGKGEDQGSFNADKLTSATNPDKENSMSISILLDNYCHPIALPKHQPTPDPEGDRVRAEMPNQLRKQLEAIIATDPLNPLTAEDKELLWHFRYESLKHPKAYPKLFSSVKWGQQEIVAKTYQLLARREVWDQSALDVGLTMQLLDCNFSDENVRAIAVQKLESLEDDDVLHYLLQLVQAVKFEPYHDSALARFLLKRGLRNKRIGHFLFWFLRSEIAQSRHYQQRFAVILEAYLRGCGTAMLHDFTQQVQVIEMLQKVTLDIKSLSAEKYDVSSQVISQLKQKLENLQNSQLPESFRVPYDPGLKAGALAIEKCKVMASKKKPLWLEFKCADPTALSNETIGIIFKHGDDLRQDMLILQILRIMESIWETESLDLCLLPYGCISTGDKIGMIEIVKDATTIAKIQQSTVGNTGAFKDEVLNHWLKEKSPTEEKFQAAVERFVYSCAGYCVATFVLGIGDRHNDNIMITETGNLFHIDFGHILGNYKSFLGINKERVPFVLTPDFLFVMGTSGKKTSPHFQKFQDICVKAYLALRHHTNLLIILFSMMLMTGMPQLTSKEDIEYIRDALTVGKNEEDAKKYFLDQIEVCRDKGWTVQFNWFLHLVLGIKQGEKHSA
Description: as §1

[7] = tested on: TSLP mRNA levels in NHBE cells; experiment: TSLP mRNA real-time PCR (qPCR) in NHBE cells; assay type: cell-based, human; design: TSLP mRNA upregulation (% versus control) / % Inhibition of mRNA: dose or concentration left out as unconfirmed; settings: for % Inhibition of mRNA at [4 μM] ± SD: NHBE donor #1, 6 h stimulation; for % Inhibition of mRNA: individual values, donor #1
[8] = tested on: Production of TNFα in THP-1 cells; experiment: p38-dependent TNF production in THP-1 cells; assay type: cell-based
[9] = tested on: TSLP production in NHBE cells; experiment: TSLP HTRF assay (TSLP production in poly I:C / IL-4 stimulated NHBE cells); assay type: cell-based, human
Description: For dose response curves determinations, stocks of test compounds at a concentration of 1.33x10^-3 M in DMSO were sequentially diluted at 1:4 dilution steps before further 1/50 dilution in BEBM medium containing 1x ITS and 0.1% BSA. For the highest 4 μM concentration test compounds were resuspended in DMSO at a concentration of 2.5x10^-3 M and diluted 1/25 in BEBM medium containing 1x ITS and 0.1% BSA before adding 1 μl to the wells containing the cells.
All subsequent steps were automated using a Sciclone® G3 workstation (Perkin Elmer) with a Twister™ II robot (Perkin Elmer). […] 1 μl of test compound solution prepared at 25x concentration was added to the wells containing NHBE cells. The plates were then incubated during 90 minutes at 37°C, 5% CO2, 90% humidity before adding poly I:C (Invivogen HMW Tirl-pic-5) and human IL-4 (Peprotech 200–04) stimulus in 4 μl of BEBM medium containing 1x ITS, 0.1% BSA and 0.1% DMSO using a Multidrop™. […] Cells were then incubated for 24h in the presence of test compounds and stimulus at 37°C, 5% CO2 and 90% humidity conditions. After the 24h incubation period the plates were transferred to a CyBi®-Well platform (CyBio AG) to collect 10 μl of the supernatants which were transferred to a new plate. TSLP levels in the supernatant were determined using a homogeneous Time-Resolved Fluorescence (HTRF) assay custom developed by Cisbio. The assay was based in the use of a donor dye (europium cryptate) coupled to a monoclonal anti-TSLP antibody and an acceptor dye (d2) coupled to a second polyclonal anti-TSLP antibody. […] 10 μl of the resulting solution was then used to determine TSLP levels as described above.
The standard curve was built with eight points prepared in ITS/BSA in BEBM medium without supplements, starting at 700 pg/ml and diluted 1:2, with medium alone being zero TSLP. Fitting model corresponded to equation 100 of Excel fit software. Data from the primary phenotypic screen was visualized using Vortex (Dotmatics). […] For compound selection the maximum inhibition of the two individual duplicate values was taken into account. Dose response confirmation was performed at single point in the 2 donors tested. 9 point curves were run starting at 4 μM concentration by doing serial 1:4 dilutions in cells derived from both donors.

[10] = Homo sapiens, THP-1, geometric mean, read-out: Activity in reference cell based assay (IC50, μM) (95% CI) Production of TNFα in THP-1 cells
[11] = Homo sapiens, THP-1, individual values, read-out: Cellular activity (IC50, mM) TNFa production in THP-1
[12] = Homo sapiens, NHBE, 24 h, NHBE cells donor #1, poly I:C / IL-4, 24h, geometric mean, read-out: Inhibition of TSLP protein production (IC50, μM) (95% CI)
[13] = individual values, donor #1, read-out: Inhibition of TSLP production in NHBE (IC50)

remaining activity at 10 µM [1] [%] | remaining activity at 10 µM [2] [%] | remaining activity at 10 µM [3] [%] | remaining activity at 10 µM [4] [%] | remaining activity at 10 µM [5] [%] | remaining activity at 10 µM ([6]; 10 μM) [%] | IC50 [8, 10] [µM] | IC50 [8, 11] [µM] | IC50 [9, 12] [µM] | IC50 [9, 13] | IC50 ([8]; individual values, read-out: Cellular activity (IC50, mM) TNFa production in THP-1) [µM] | IC50 ([9]; Homo sapiens, NHBE, individual values, donor #1, read-out: Inhibition of TSLP production in NHBE (IC50)) [µM] | Compound | % Inhibition of mRNA at [4 μM] ± SD [7] [%] | % Inhibition of mRNA [7] | inhibition at 10 µM ([6]; 10 μM, read-out: inhibition of PI3K (p120γ)) [%] | IC50 ([6]; biochemical dose response, duplicate, read-out: Inhibition of indicated activity (IC50, μM): PI3K (p120γ)) [µM]
91 | 96 | 107 | 114 | 100 | 92 | 0.0004 | 0.00045 | 0.022 | 0.023 µM and 0.009 µM and 0.055 µM |  |  | CC(C)(C)N1CCC(c2cc(-c3ccc(F)cc3Cl)c3cc[n+]([O-])c(-c4c(Cl)cccc4Cl)c3n2)CC1 [compound 2] | 79.69 ± 4.76 | 83.056% and 76.316% |  | 
105 | 88 | 112 | 98 | 97 | 85 | 0.001 | 0.00242 | 0.172 | 0.211 µM and 0.131 µM | 0.00132 | 0.186 | Cc1ccc(C(=O)NCC2CC2)cc1-c1ccc2c(c1)NC(=O)C21CCCC1 [compound 3] | 80.07 ± 0.48 | 80.414% and 79.735% |  | 
92 | 92 | 135 | 112 | 99 | 86 | 0.002 | 0.002 | 0.738 | 0.486 µM and 0.72 µM and 1.15 µM |  |  | COc1c(NC(=O)c2ccc(C)c(-c3nnc4c(NCC(C)(C)C)nccn34)c2)cc(C(C)(C)C)cc1NS(C)(=O)=O [compound 7, reference compound] |  |  |  | 

The next lines start with the compound.

Compound | remaining activity at 10 µM [1] [%] | remaining activity at 10 µM [2] [%] | remaining activity at 10 µM [3] [%] | remaining activity at 10 µM [4] [%] | remaining activity at 10 µM [5] [%] | remaining activity at 10 µM ([6]; 10 μM) [%] | IC50 [8, 10] [µM] | IC50 [8, 11] [µM] | IC50 [9, 12] [µM] | IC50 [9, 13] | IC50 ([8]; individual values, read-out: Cellular activity (IC50, mM) TNFa production in THP-1) [µM] | IC50 ([9]; Homo sapiens, NHBE, individual values, donor #1, read-out: Inhibition of TSLP production in NHBE (IC50)) [µM] | % Inhibition of mRNA at [4 μM] ± SD [7] [%] | % Inhibition of mRNA [7] | inhibition at 10 µM ([6]; 10 μM, read-out: inhibition of PI3K (p120γ)) [%] | IC50 ([6]; biochemical dose response, duplicate, read-out: Inhibition of indicated activity (IC50, μM): PI3K (p120γ)) [µM]
Cn1cc(-c2cccc(-c3nc(C(=O)NC4C5CC6CC4CC(O)(C6)C5)c(N)nc3N)c2)cn1 (stereo not shown) [compound 4] | 99 | 102 | 109 | 89 | 81 | 33 |  |  | 0.075 | 0.052 µM and 0.037 µM and 0.178 µM and 0.1 µM and 0.036 µM and 0.147 µM |  |  | 90.44 ± 0.24 | 90.608% and 90.263% | 67 | 4.78
CS(=O)(=O)N1CCN(c2ccc(Nc3ncc(C(N)=O)c(NC4CC4)n3)cc2)CC1 [compound 5] | 36 | 1 | 14 | 17 | 10 | 86 |  |  | 0.043 | 0.026 µM and 0.048 µM and 0.028 µM and 0.054 µM and 0.083 µM |  |  | 99.76 ± 0.12 | 99.853% and 99.672% |  | 
